# Like-named read-outs stand apart in the source and are kept apart here.
# What was measured:
# [1] = Intracellular concentration of non-natural amino acids (cellular uptake); assay type: in vitro ADME
# Excerpt: Non-natural amino acid uptake by a eukaryotic cell is one issue that is typically considered when designing and selecting non-natural amino acids, including but not limited to, for incorporation into a protein. […] Natural amino acids are taken up into the eukaryotic cell via a collection of protein-based transport systems. A rapid screen can be done which assesses which non-natural amino acids, if any, are taken up by cells (examples 15 & 16 herein illustrate non-limiting examples of tests which can be done on non-natural amino acids). See, e.g., the toxicity assays in, e.g., the U.S. Patent Publication No. 2004/198637 entitled “Protein Arrays,” which is herein incorporated by reference in its entirety, and Liu, D. R. & Schultz, P. G. (1999) Progress toward the evolution of an organism with an expanded genetic code. PNAS United States 96:4780-4785. Although uptake is easily analyzed with various assays, an alternative to designing non-natural amino acids that are amenable to cellular uptake pathways is to provide biosynthetic pathways to create amino acids in vivo.
# (§1) This example provides results of four tests that were conducted on certain illustrative non-natural amino acids as an aid for predicting their properties for incorporation into non-natural amino acid polypeptides.
# Oxime stability pH 4-8 = assay type: physicochemical
# Protocol: as §1
# [2] = Pharmacokinetic studies, single s.c. dose in rats, plasma growth hormone ELISA; assay type: in vivo; conditions: single-dose 1 mg/kg bolus s.c., normal male Sprague-Dawley rats; average (+/- standard deviation)
# Protocol: Pharmacokinetic properties of PEG-modified growth hormone compounds were compared to each other and to nonPEGylated growth hormone in male Sprague-Dawley rats (261-425 g) obtained from Charles River Laboratories. Catheters were surgically installed into the carotid artery for blood collection. Following successful catheter installation, animals were assigned to treatment groups (three to six per group) prior to dosing. Animals were dosed subcutaneously with 1 mg/kg of compound in a dose volume of 0.41-0.55 ml/kg. Blood samples were collected at various time points via the indwelling catheter and into EDTA-coated microfuge tubes. Plasma was collected after centrifugation, and stored at −80° C. until analysis. Compound concentrations were measured using antibody sandwich growth hormone ELISA kits from either BioSource International (Camarillo, Calif.) or Diagnostic Systems Laboratories (Webster, Tex.). Concentrations were calculated using standards corresponding to the analog that was dosed. Pharmacokinetic parameters were estimated using the modeling program WinNonlin (Pharsight, version 4.1). Noncompartmental analysis with linear-up/log-down trapezoidal integration was used, and concentration data was uniformly weighted.
# Plasma concentrations were obtained at regular intervals following a single subcutaneous dose in rats. […] Plasma samples were taken over the regular time intervals and assayed for injected compound as described. […] Concentration vs time curves were evaluated by noncompartmental analysis (Pharsight, version 4.1). Values shown are averages (+/−standard deviation). Cmax: maximum concentration; terminal t1/2: terminal half-life; AUC0->inf: area under the concentration-time curve extrapolated to infinity; MRT: mean residence time; Cl/f: apparent total, plasma clearance; Vz/f: apparent volume of distribution during terminal phase.
# [3] = tested on: aminoacyl-tRNA synthetase (RS); experiment: RS test
# Protocol: as §1
# [4] = Pharmacodynamic studies, bodyweight gain in hypophysectomized rats; assay type: in vivo, Hypophysectomized male Sprague-Dawley rats; conditions: s.c., compared with 30 KPEG-pAF92(his)hGH, p<0.0005
# Protocol: Hypophysectomized male Sprague-Dawley rats were obtained from Charles River Laboratories. Pituitaries were surgically removed at 3-4 weeks of age. Animals were allowed to acclimate for a period of three weeks, during which time bodyweight was monitored. Animals with a bodyweight gain of 0-8 g over a period of seven days before the start of the study were included and randomized to treatment groups. Rats were administered either a bolus dose or daily dose subcutaneously. Throughout the study rats were daily and sequentially weighed, anesthetized, bled, and dosed (when applicable). Blood was collected from the orbital sinus using a heparinized capillary tube and placed into an EDTA coated microfuge tube. Plasma was isolated by centrifugation and stored at −80° C. until analysis. The mean (+/−S.D.) plasma concentrations were plotted versus time intervals.
# The peptide IGF-1 is a member of the family of somatomedins or insulin-like growth factors. IGF-1 mediates many of the growth-promoting effects of growth hormone. IGF-1 concentrations were measured using a competitive binding enzyme immunoassay kit against the provided rat/mouse IGF-1 standards (Diagnostic Systems Laboratories). Hypophysectomized rats. Rats (n=5-7 per group) were given either a single dose or daily dose subcutaneously. Animals were sequentially weighed, anesthetized, bled, and dosed (when applicable) daily.
# pH stability tests = assay type: physicochemical
# Protocol: This example provides the results of pH stability tests that were conducted on certain illustrative non-natural amino acids as an aid for predicting their properties for incorporation into non-natural amino acid polypeptides.
compound,measurement,setting,value
CC(=O)COc1ccc(C[C@H](N)C(=O)O)cc1,Intracellular Concentration,[1],1000 to 1800 µM
CC(=O)C(=O)Nc1ccc(C[C@H](N)C(=O)O)cc1,Intracellular Concentration,[1],376 µM
N[C@@H](Cc1ccc2c(c1)NC(=O)C2=O)C(=O)O,Oxime Stability pH 4-8,Oxime stability pH 4-8,− −
"30KPEG-pAF131(his)hGH: ""His-tagged hGH polypeptide comprising non-natural amino acid p-acetyl-phenylalanine covalently linked to 30 kDa PEG at each of six different positions""",AUC0->inf,[2],"6,978 (±2,573) ng × hr/ml"
same,Cl/f,[2],161 (±61) ml/hr/kg
same,Cmax,[2],497 (±187) ng/ml
same,MRT,[2],14.28 (±0.92) h
same,Terminal t1/2,[2],4.41 (±0.27) h
"30KPEG-pAF143(his)hGH: ""His-tagged hGH polypeptide comprising non-natural amino acid p-acetyl-phenylalanine covalently linked to 30 kDa PEG at each of six different positions""",AUC0->inf,[2],"17,494 (±3,654) ng × hr/ml"
same,Cl/f,[2],59 (±11) ml/hr/kg
same,Cmax,[2],803 (±149) ng/ml
same,MRT,[2],18.83 (±1.59) h
same,Terminal t1/2,[2],6.02 (±1.43) h
CC(=O)CC(=O)c1ccc(C[C@H](N)C(=O)O)cc1,RS test,[3],Meta- bolized
CC(C)=NOCOc1ccc(C[C@H](N)C(=O)O)cc1,Intracellular Concentration,[1],60 µM
CC(C)=NOCc1ccc(C[C@H](N)C(=O)O)cc1,Intracellular Concentration,[1],300 µM
"30KPEG-pAF145(his)hGH: ""His-tagged hGH polypeptide comprising non-natural amino acid p-acetyl-phenylalanine covalently linked to 30 kDa PEG at each of six different positions""",AUC0->inf,[2],"13,162 (±6,726) ng × hr/ml"
same,Cl/f,[2],88 (±29) ml/hr/kg
same,Cmax,[2],634 (±256) ng/ml
same,MRT,[2],17.82 (±0.56) h
same,Terminal t1/2,[2],5.87 (±0.09) h
CC(=O)C(=O)c1ccc(C[C@H](N)C(=O)O)cc1,Intracellular Concentration,[1]; remark in words,Reduced [M + 2]
CC(=O)C(F)(F)c1ccc(C[C@H](N)C(=O)O)cc1,Intracellular Concentration,[1],279 µM
"30KPEG-pAF35(his)hGH: ""hGH polypeptides comprising p-acetyl-phenylalanine covalently-linked to 30 kDa PEG at positions 35 and 92""",bodyweight gain at day 9,[4],greater weight gain
same,AUC0->inf,[2],"39,918 (±22,683) ng × hr/ml"
same,Cl/f,[2],35 (±27) ml/hr/kg
same,Cmax,[2],"1,885 (±1,011) ng/ml"
same,MRT,[2],19.16 (±4.00) h
same,Terminal t1/2,[2],4.85 (±0.80) h
"30KPEG-pAF134(his)hGH: ""His-tagged hGH polypeptide comprising non-natural amino acid p-acetyl-phenylalanine covalently linked to 30 kDa PEG at each of six different positions""",AUC0->inf,[2],"7,304 (±2,494) ng × hr/ml"
same,Cl/f,[2],151 (±63) ml/hr/kg
same,Cmax,[2],566 (±204) ng/ml
same,MRT,[2],12.15 (±1.03) h
same,Terminal t1/2,[2],4.36 (±0.33) h
COCCOC(=O)NCCO/N=C1\C(=O)Nc2ccccc21,pH stability,"pH stability tests; pH 4.0, 1 hour",<1%
same,pH stability,"pH stability tests; pH 4.0, 1 day",<1%
same,pH stability,"pH stability tests; pH 4.0, 2 days",<1%
same,pH stability,"pH stability tests; pH 4.0, 3 days",<1%
same,pH stability,"pH stability tests; pH 4.0, 4 days",<1%
same,pH stability,"pH stability tests; pH 4.0, 5 days",<1%
same,pH stability,"pH stability tests; pH 4.0, 6 days",<1%
same,pH stability,"pH stability tests; pH 4.0, 7 days",<1%
same,pH stability,"pH stability tests; pH 4.0, 10 days",<1%
same,pH stability,"pH stability tests; pH 5.0, 1 hour",<1%
same,pH stability,"pH stability tests; pH 5.0, 1 day",<1%
same,pH stability,"pH stability tests; pH 5.0, 2 days",<1%
same,pH stability,"pH stability tests; pH 5.0, 3 days",<1%
same,pH stability,"pH stability tests; pH 5.0, 4 days",<1%
same,pH stability,"pH stability tests; pH 5.0, 5 days",<1%
same,pH stability,"pH stability tests; pH 5.0, 6 days",<1%
same,pH stability,"pH stability tests; pH 5.0, 7 days",<1%
same,pH stability,"pH stability tests; pH 5.0, 10 days",<1%
same,pH stability,"pH stability tests; pH 6.5, 1 hour",<1%
same,pH stability,"pH stability tests; pH 6.5, 1 day",<1%
same,pH stability,"pH stability tests; pH 6.5, 2 days",<1%
same,pH stability,"pH stability tests; pH 6.5, 3 days",<1%
same,pH stability,"pH stability tests; pH 6.5, 4 days",<1%
same,pH stability,"pH stability tests; pH 6.5, 5 days",<1%
same,pH stability,"pH stability tests; pH 6.5, 6 days",<1%
same,pH stability,"pH stability tests; pH 6.5, 7 days",<1%
same,pH stability,"pH stability tests; pH 6.5, 10 days",<1%
same,pH stability,"pH stability tests; pH 7.4, 1 hour",<1%
same,pH stability,"pH stability tests; pH 7.4, 1 day",<1%
same,pH stability,"pH stability tests; pH 7.4, 2 days",<1%
same,pH stability,"pH stability tests; pH 7.4, 3 days",<1%
same,pH stability,"pH stability tests; pH 7.4, 4 days",<1%
same,pH stability,"pH stability tests; pH 7.4, 5 days",<1%
same,pH stability,"pH stability tests; pH 7.4, 6 days",<1%
same,pH stability,"pH stability tests; pH 7.4, 7 days",<1%
same,pH stability,"pH stability tests; pH 7.4, 10 days",<1%
same,pH stability,"pH stability tests; pH 8.0, 1 hour",<1%
same,pH stability,"pH stability tests; pH 8.0, 1 day",<1%
same,pH stability,"pH stability tests; pH 8.0, 2 days",<1%
same,pH stability,"pH stability tests; pH 8.0, 3 days",<1%
same,pH stability,"pH stability tests; pH 8.0, 4 days",<1%
same,pH stability,"pH stability tests; pH 8.0, 5 days",<1%
same,pH stability,"pH stability tests; pH 8.0, 6 days",<1%
same,pH stability,"pH stability tests; pH 8.0, 7 days",<1%
same,pH stability,"pH stability tests; pH 8.0, 10 days",<1%
COCCOC(=O)NCCO/N=C(\C)C(=O)c1ccccc1,pH stability,"pH stability tests; pH 4.0, 1 hour",<1%
same,pH stability,"pH stability tests; pH 4.0, 1 day",<1%
same,pH stability,"pH stability tests; pH 4.0, 2 days",<1%
same,pH stability,"pH stability tests; pH 4.0, 3 days",<1%
same,pH stability,"pH stability tests; pH 4.0, 4 days",<1%
same,pH stability,"pH stability tests; pH 4.0, 5 days",<1%
same,pH stability,"pH stability tests; pH 4.0, 6 days",<1%
same,pH stability,"pH stability tests; pH 4.0, 7 days",<1%
same,pH stability,"pH stability tests; pH 4.0, 10 days",<1%
same,pH stability,"pH stability tests; pH 5.0, 1 hour",<1%
same,pH stability,"pH stability tests; pH 5.0, 1 day",<1%
same,pH stability,"pH stability tests; pH 5.0, 2 days",<1%
same,pH stability,"pH stability tests; pH 5.0, 3 days",<1%
same,pH stability,"pH stability tests; pH 5.0, 4 days",<1%
same,pH stability,"pH stability tests; pH 5.0, 5 days",<1%
same,pH stability,"pH stability tests; pH 5.0, 6 days",<1%
same,pH stability,"pH stability tests; pH 5.0, 7 days",<1%
same,pH stability,"pH stability tests; pH 5.0, 10 days",<1%
same,pH stability,"pH stability tests; pH 6.5, 1 hour",<1%
same,pH stability,"pH stability tests; pH 6.5, 1 day",<1%
same,pH stability,"pH stability tests; pH 6.5, 2 days",<1%
same,pH stability,"pH stability tests; pH 6.5, 3 days",<1%
same,pH stability,"pH stability tests; pH 6.5, 4 days",<1%
same,pH stability,"pH stability tests; pH 6.5, 5 days",<1%
same,pH stability,"pH stability tests; pH 6.5, 6 days",<1%
same,pH stability,"pH stability tests; pH 6.5, 7 days",<1%
same,pH stability,"pH stability tests; pH 6.5, 10 days",<1%
same,pH stability,"pH stability tests; pH 7.4, 1 hour",<1%
same,pH stability,"pH stability tests; pH 7.4, 1 day",<1%
same,pH stability,"pH stability tests; pH 7.4, 2 days",<1%
same,pH stability,"pH stability tests; pH 7.4, 3 days",<1%
same,pH stability,"pH stability tests; pH 7.4, 4 days",<1%
same,pH stability,"pH stability tests; pH 7.4, 5 days",<1%
same,pH stability,"pH stability tests; pH 7.4, 6 days",<1%
same,pH stability,"pH stability tests; pH 7.4, 7 days",<1%
same,pH stability,"pH stability tests; pH 7.4, 10 days",<1%
same,pH stability,"pH stability tests; pH 8.0, 1 hour",<1%
same,pH stability,"pH stability tests; pH 8.0, 1 day",<1%
same,pH stability,"pH stability tests; pH 8.0, 2 days",<1%
same,pH stability,"pH stability tests; pH 8.0, 3 days",<1%
same,pH stability,"pH stability tests; pH 8.0, 4 days",<1%
same,pH stability,"pH stability tests; pH 8.0, 5 days",<1%
same,pH stability,"pH stability tests; pH 8.0, 6 days",<1%
same,pH stability,"pH stability tests; pH 8.0, 7 days",<1%
same,pH stability,"pH stability tests; pH 8.0, 10 days",<1%
CC(=O)c1ccc(C[C@H](N)C(=O)O)cc1,Intracellular Concentration,[1],600 µM
same,RS test,[3],✓
CC(=O)N/N=C/c1ccc(C[C@H](N)C(=O)O)cc1,Intracellular Concentration,[1],30 µM
same,RS test,[3],✓
CC(=O)CNC(=O)c1ccc(C[C@H](N)C(=O)O)cc1,Intracellular Concentration,[1],628 µM
same,Intracellular Concentration,[1]; remark in words,little reduced
